Measurements from PubChem BioAssay (NCI).
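96-well plates; 48 h exposure; 5 concentrations. Endpoints by linear interpolation between flanking doses. Not reached: highest tested concentration assigned. At the GI50, growth is halved. The concentration for full growth arrest is given as TGI.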

What was measured:
Experiment in all cases: NCI anticancer screen, dose series, 48 h
UO-31 renal = system: UO-31 renal
SNB-19 CNS = system: SNB-19 CNS
KM12 colon = system: KM12 colon
SF-295 CNS = system: SF-295 CNS
T-47D breast = system: T-47D breast
LOX IMVI melanoma = system: LOX IMVI melanoma
SW-620 colon = system: SW-620 colon
SK-MEL-28 melanoma = system: SK-MEL-28 melanoma
SNB-75 CNS = system: SNB-75 CNS
UACC-257 melanoma = system: UACC-257 melanoma
BT-549 breast = system: BT-549 breast
COLO 205 colon = system: COLO 205 colon
UACC-62 melanoma = system: UACC-62 melanoma
HCC-2998 colon = system: HCC-2998 colon
MDA-MB-231 breast = system: MDA-MB-231 breast
MDA-MB-435 = system: MDA-MB-435
OVCAR-5 ovarian = system: OVCAR-5 ovarian
SN12C renal = system: SN12C renal
SR leukemia = system: SR leukemia
HCT-116 colon = system: HCT-116 colon
NCI/ADR-RES ovarian = system: NCI/ADR-RES ovarian
HOP-62 NSCLC = system: HOP-62 NSCLC
HT29 colon = system: HT29 colon
MALME-3M melanoma = system: MALME-3M melanoma
SF-268 CNS = system: SF-268 CNS
MOLT-4 leukemia = system: MOLT-4 leukemia
PC-3 prostate = system: PC-3 prostate
ACHN renal = system: ACHN renal
SF-539 CNS = system: SF-539 CNS

With O=C1CCC(N2Cc3c(C#CCCCNC(=O)c4cc5c(o4)C(=O)c4ccccc4C5=O)cccc3C2=O)C(=O)N1 (stereo not drawn) the GI50 (UO-31 renal) was 14 µM, the TGI (UO-31 renal) was 36.1 µM and the GI50 (SNB-19 CNS) was 2.65 µM. For the same molecule, the TGI (SNB-19 CNS) was 8.35 µM, the GI50 (KM12 colon) was 4.52 µM and the TGI (KM12 colon) was 28.6 µM. The GI50 (SF-295 CNS) was 2.84 µM, the TGI (SF-295 CNS) was 8.03 µM and the GI50 (T-47D breast) was 3.16 µM. It also gave a TGI (T-47D breast) of 11.9 µM, a GI50 (LOX IMVI melanoma) of 2.14 µM and a TGI (LOX IMVI melanoma) of 5.49 µM. The GI50 (SW-620 colon) was 3.05 µM, the TGI (SW-620 colon) was 11.4 µM and the GI50 (SK-MEL-28 melanoma) was 3.53 µM. It also gave a TGI (SK-MEL-28 melanoma) of 8.83 µM, a GI50 (SNB-75 CNS) of 2.09 µM and a TGI (SNB-75 CNS) of 4.72 µM. For the same molecule, the GI50 (UACC-257 melanoma) was 2 µM, the TGI (UACC-257 melanoma) was 4.48 µM and the GI50 (BT-549 breast) was 1.73 µM. It also gave a TGI (BT-549 breast) of 3.17 µM, a GI50 (COLO 205 colon) of 2.3 µM and a TGI (COLO 205 colon) of 6.01 µM. The GI50 (UACC-62 melanoma) was 1.87 µM, the TGI (UACC-62 melanoma) was 3.65 µM and the GI50 (HCC-2998 colon) was 2.63 µM. For the same molecule, the TGI (HCC-2998 colon) was 6.63 µM, the GI50 (MDA-MB-231 breast) was 2.92 µM and the TGI (MDA-MB-231 breast) was 19.6 µM. The GI50 (MDA-MB-435) was 1.81 µM, the TGI (MDA-MB-435) was 3.27 µM and the GI50 (OVCAR-5 ovarian) was 15.6 µM. For the same molecule, the TGI (OVCAR-5 ovarian) was 29.7 µM, the GI50 (SN12C renal) was 1.69 µM and the TGI (SN12C renal) was 3.25 µM. It also gave a GI50 (SR leukemia) of 3.15 µM, a TGI (SR leukemia) of 14.5 µM and a GI50 (HCT-116 colon) of 3.09 µM. The TGI (HCT-116 colon) was 10.3 µM, the GI50 (NCI/ADR-RES ovarian) was greater than 100 µM and the TGI (NCI/ADR-RES ovarian) was greater than 100 µM. The GI50 (HOP-62 NSCLC) was 2.89 µM, the TGI (HOP-62 NSCLC) was 9.32 µM and the GI50 (HT29 colon) was 5.92 µM. For the same molecule, the TGI (HT29 colon) was 39.9 µM, the GI50 (MALME-3M melanoma) was 0.988 µM and the TGI (MALME-3M melanoma) was 2.19 µM. For the same molecule, the GI50 (SF-268 CNS) was 3.06 µM, the TGI (SF-268 CNS) was 11.2 µM and the GI50 (MOLT-4 leukemia) was 3.08 µM. For the same molecule, the TGI (MOLT-4 leukemia) was 12.5 µM, the GI50 (PC-3 prostate) was 2.95 µM and the TGI (PC-3 prostate) was 56.2 µM. It also gave a GI50 (ACHN renal) of 12.6 µM, a TGI (ACHN renal) of 26 µM and a GI50 (SF-539 CNS) of 2.27 µM. The TGI (SF-539 CNS) was 5.26 µM.
